US9278954B2, “Pyrrolidine derivatives, pharmaceutical compositions and uses thereof” (Boehringer Ingelheim International GmbH, priority 2013, dated 2016)

Biological target: human ACC2 (Homo sapiens (Human), UniProt O00763)
Test: ACC2 assay (spectrophotometric 384 well assay, NADH-linked kinetic method)
Format: biochemical
Conditions: hACC2 construct lacking the 128 N-terminal amino acids; 25° C., 340 nm over 15 minutes
Method: Spectrophotometric 384 Well Assay
Malonyl CoA formation by acetyl CoA carboxylases is stoichometrically linked to the consumption of ATP. ACC2 activity is measured in a NADH-linked kinetic method measuring ADP generated during the ACC reaction using a coupled lactate dehydrogenase/pyruvate kinase reaction.
The protein is then expressed in insect cells using a baculoviral expression system. Protein purification is performed by anion exchange.
All compounds are dissolved in dimethyl sulfoxide (DMSO) to a concentration of 10 mM.
The enzymatic reaction is then started by addition of a mixture of NADH, acetyl
Coenzyme A (both […].) and ATP (500 uM f.c.). The decrease of the optical density (slope S) is then determined at 25° C. at a wavelength of 340 nm over 15 minutes in a spectrophotometric reader.
Each assay microtiter plate contains wells with vehicle instead of compound as controls for the non-inhibited enzyme (100% CTL; ‘HIGH’) and wells without acetyl-CoA as controls for non-specific NADH degradation (0% CTL; ‘LOW’).

Sequence of human ACC2 (O00763 129-2458): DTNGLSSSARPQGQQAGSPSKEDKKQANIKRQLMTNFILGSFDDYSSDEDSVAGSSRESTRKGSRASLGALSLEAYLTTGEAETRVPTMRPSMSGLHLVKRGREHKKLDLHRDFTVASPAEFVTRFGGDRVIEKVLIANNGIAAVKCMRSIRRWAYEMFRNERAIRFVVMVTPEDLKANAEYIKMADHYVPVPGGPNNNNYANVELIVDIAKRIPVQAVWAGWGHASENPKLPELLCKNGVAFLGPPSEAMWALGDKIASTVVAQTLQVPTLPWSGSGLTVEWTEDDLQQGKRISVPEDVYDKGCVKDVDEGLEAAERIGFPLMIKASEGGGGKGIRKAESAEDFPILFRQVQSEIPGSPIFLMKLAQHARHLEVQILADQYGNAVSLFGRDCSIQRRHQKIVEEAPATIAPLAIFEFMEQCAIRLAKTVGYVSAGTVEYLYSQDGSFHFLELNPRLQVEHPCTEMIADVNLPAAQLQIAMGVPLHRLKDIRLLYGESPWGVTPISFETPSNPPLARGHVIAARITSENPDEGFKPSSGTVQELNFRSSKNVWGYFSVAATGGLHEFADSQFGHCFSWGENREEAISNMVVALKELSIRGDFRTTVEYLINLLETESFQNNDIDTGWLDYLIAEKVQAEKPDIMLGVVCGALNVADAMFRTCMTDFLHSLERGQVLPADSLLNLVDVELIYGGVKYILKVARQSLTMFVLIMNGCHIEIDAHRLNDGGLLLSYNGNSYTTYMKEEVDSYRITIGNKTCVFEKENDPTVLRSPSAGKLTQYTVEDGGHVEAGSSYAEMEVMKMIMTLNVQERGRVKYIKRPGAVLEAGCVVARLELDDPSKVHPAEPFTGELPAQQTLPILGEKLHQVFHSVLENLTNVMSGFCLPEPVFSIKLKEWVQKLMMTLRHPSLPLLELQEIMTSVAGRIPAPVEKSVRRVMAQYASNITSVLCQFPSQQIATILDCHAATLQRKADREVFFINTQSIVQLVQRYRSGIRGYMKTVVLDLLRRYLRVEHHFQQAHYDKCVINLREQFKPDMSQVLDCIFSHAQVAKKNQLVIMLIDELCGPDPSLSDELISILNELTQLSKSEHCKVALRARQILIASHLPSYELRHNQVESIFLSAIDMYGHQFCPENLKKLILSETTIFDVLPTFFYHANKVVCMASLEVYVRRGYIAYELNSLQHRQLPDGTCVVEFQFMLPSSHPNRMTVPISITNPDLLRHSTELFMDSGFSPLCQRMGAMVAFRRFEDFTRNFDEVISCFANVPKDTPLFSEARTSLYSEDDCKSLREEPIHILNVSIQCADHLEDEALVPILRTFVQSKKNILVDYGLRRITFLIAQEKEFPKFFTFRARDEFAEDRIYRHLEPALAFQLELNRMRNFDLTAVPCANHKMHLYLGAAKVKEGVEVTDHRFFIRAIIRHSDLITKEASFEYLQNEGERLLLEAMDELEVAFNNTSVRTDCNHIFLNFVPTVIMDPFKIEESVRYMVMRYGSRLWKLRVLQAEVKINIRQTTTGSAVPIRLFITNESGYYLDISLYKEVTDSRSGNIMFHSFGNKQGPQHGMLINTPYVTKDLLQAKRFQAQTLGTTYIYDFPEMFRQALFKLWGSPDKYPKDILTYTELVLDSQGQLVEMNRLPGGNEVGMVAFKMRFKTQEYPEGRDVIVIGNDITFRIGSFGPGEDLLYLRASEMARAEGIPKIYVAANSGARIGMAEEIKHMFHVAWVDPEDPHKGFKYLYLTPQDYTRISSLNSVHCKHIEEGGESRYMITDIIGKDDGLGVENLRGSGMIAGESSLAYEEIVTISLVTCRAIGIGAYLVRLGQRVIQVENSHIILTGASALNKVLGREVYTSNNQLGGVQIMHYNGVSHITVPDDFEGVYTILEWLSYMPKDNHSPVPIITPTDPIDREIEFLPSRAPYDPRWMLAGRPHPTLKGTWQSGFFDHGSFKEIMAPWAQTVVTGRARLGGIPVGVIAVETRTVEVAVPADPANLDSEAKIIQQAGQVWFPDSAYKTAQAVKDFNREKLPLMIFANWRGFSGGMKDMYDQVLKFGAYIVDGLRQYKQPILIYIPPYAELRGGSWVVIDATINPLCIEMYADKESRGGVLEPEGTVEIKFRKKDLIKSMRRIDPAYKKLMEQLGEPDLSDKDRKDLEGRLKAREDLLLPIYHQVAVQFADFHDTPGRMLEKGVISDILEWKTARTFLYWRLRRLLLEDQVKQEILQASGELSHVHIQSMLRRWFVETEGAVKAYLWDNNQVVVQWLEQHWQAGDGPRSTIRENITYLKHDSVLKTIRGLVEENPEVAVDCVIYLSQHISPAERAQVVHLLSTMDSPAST

Row | SMILES | IC50 [µM]
1 | CCNC(=O)C(C)c1ccc(O[C@@H]2CCN(c3ccc(OCC4CC4)nc3)C2)cc1 (stereo partly drawn) [Example 7.24] | 0.473
2 | CC(C(=O)NCCF)c1ccc(O[C@@H]2CCN(c3nc(N(C)C)ncc3F)C2)cc1 (stereo partly drawn) [Example 1.51] | 0.512
3 | CC(C(=O)NCCF)c1ccc(O[C@@H]2CCN(c3ncnc(OCC(C)(C)O)c3Cl)C2)cc1 (stereo partly drawn) [Example 1.54] | 0.547
4 | CC(C(=O)NC1CC1C)c1ccc(O[C@@H]2CCN(c3nc(N(C)C)ncc3F)C2)cc1 (single isomer, unassigned) [6.2 isomer 3] | 0.219
5 | CC(C(=O)NCC(F)F)c1ccc(O[C@@H]2CCN(c3ncnc(OCC(C)(C)O)c3F)C2)cc1 (stereo partly drawn) [Example 3.7] | 0.613
6 | CC(C(=O)NC1COC1)c1ccc(O[C@@H]2CCN(c3nc(N(C)C)ncc3F)C2)cc1 (stereo partly drawn) [Example 1.68] | 0.724
7 | CCNC(=O)C(C)c1ccc(O[C@@H]2CCN(c3ccnc(C(F)(F)F)n3)C2)cc1 (stereo partly drawn) [Example 9.2] | 0.975
8 | CCNC(=O)C(C)c1ccc(O[C@@H]2CCN(c3ccc(OC4CCCCC4)nc3)C2)cc1 (stereo partly drawn) [Example 7.28] | 0.583
9 | CCCNc1ncnc(N2CC[C@@H](Oc3ccc(C(C)C(=O)NCC(F)F)cc3)C2)c1F (stereo partly drawn) [Example 3.10] | 0.955
10 | CCNC(=O)C(C)c1ccc(O[C@@H]2CCN(c3ccc(OCCC4CC4)cc3)C2)cc1 (stereo partly drawn) [Example 7.21] | 0.454
11 | CCNC(=O)C(C)c1ccc(O[C@@H]2CCN(c3nc(C)ccc3F)C2)cc1 (stereo partly drawn) [Example 7.25] | 0.5
12 | CC(C)CNC(=O)C(C)c1ccc(O[C@@H]2CCN(c3ccc(OCC4CC4(F)F)cn3)C2)cc1 (stereo partly drawn) [Example 1.79] | 0.907
13 | CC[C@@H](C)NC(=O)C(C)c1ccc(O[C@@H]2CCN(c3ncnc(OCC(C)(F)F)c3F)C2)cc1 (stereo partly drawn) [Example 1.59] | 0.603
14 | C=C(C)CNC(=O)C(C)c1ccc(O[C@@H]2CCN(c3nc(N(C)C)ncc3F)C2)cc1 (stereo partly drawn) [Example 1.44] | 0.454
15 | CCNC(=O)C(C)c1ccc(O[C@@H]2CCN(c3nc(N(C)C)ncc3F)C2)cc1 (single isomer, unassigned) [6.6 isomer 1] | 0.126
16 | CC(C(=O)NCC(F)(F)F)c1ccc(O[C@@H]2CCN(c3ncnc(OCC(C)(C)O)c3Cl)C2)cc1 (stereo partly drawn) [Example 1.74] | 0.813
17 | CCCNc1nccc(N2CC[C@@H](Oc3ccc(C(C)C(=O)NC(C)CO)cc3)C2)c1F (stereo partly drawn) [Example 1.72] | 0.789
18 | CC(C)NC(=O)C(C)c1ccc(O[C@@H]2CCN(c3ncnc(OCC(C)(F)F)c3F)C2)cc1 (stereo partly drawn) [Example 1.80] | 0.907
19 | CC(C(=O)NC1COC1)c1ccc(O[C@@H]2CCN(c3ccc(OCC4CC4(F)F)cn3)C2)cc1 (stereo partly drawn) [Example 1.67] | 0.706
20 | CCCNC(=O)C(C)c1ccc(O[C@@H]2CCN(c3ncnc(OCC(C)(C)O)c3Cl)C2)cc1 (stereo partly drawn) [Example 1.40] | 0.437
21 | CC(C(=O)NCC(F)F)c1ccc(O[C@@H]2CCN(c3ncnc(OCC(C)(C)O)c3Cl)C2)cc1 (single isomer, unassigned) [6.5 isomer 2] | 0.872
22 | CCNC(=O)C(C)c1ccc(O[C@@H]2CCN(c3ccc(F)c(Cl)c3)C2)cc1 (stereo partly drawn) [Example 7.31] | 0.639
23 | CC(C(=O)NC[C@H](C)O)c1ccc(O[C@@H]2CCN(c3ccc(OCC4CC4(F)F)cn3)C2)cc1 (stereo partly drawn) [Example 1.89] | 1.88

Next, values leading:

Row | IC50 [µM] | SMILES
24 | 0.274 | CCNC(=O)C(C)c1ccc(O[C@@H]2CCN(c3ccc(OCC4CC4)cc3)C2)cc1 (stereo partly drawn) [Example 7.8]
25 | 0.306 | C#CCNC(=O)C(C)c1ccc(O[C@@H]2CCN(c3ncnc(OCC(C)(C)O)c3Cl)C2)cc1 (stereo partly drawn) [Example 1.20]
26 | 0.365 | CCNC(=O)C(C)c1ccc(O[C@@H]2CCN(c3cc(C(F)(F)F)ccc3C)C2)cc1 (stereo partly drawn) [Example 7.11]
27 | 0.399 | CCNC(=O)C(C)c1ccc(O[C@@H]2CCN(c3ccnc(N4CCC(F)(F)C4)n3)C2)cc1 (stereo partly drawn) [Example 2.4]
28 | 0.367 | CCCNc1nccc(N2CC[C@@H](Oc3ccc(C(C)C(=O)N[C@H](C)CC)cc3)C2)c1F (stereo partly drawn) [Example 1.29]
29 | 0.095 | CCNC(=O)C(C)c1ccc(O[C@@H]2CCN(c3ccnc(N(CC)CC)n3)C2)cc1 (stereo partly drawn) [Example 2.1, (R)-2-(4-[1-(2-Diethylamino-pyrimidin-4-yl)-pyrrolidin-3-lyoxy]-phenyl)-N-ethyl-propionamide]
30 | 0.435 | CCNC(=O)C(C)c1ccc(O[C@@H]2CCN(c3cccc(Cl)c3)C2)cc1 (stereo partly drawn) [Example 7.19]
31 | 0.319 | CCCNc1nccc(N2CC[C@@H](Oc3ccc(C(C)C(=O)NC(C)C)cc3)C2)c1F (stereo partly drawn) [Example 1.24]
32 | 0.225 | CCCOc1ccc(N2CC[C@@H](Oc3ccc(C(C)C(=O)NCC)cc3)C2)c(Cl)c1 (stereo partly drawn) [Example 7.5]
33 | 0.41 | CCNC(=O)C(C)c1ccc(O[C@@H]2CCN(c3cccc(C)c3)C2)cc1 (stereo partly drawn) [Example 7.16]
34 | 0.213 | CCCNc1nccc(N2CC[C@@H](Oc3ccc(C(C)C(=O)NCC)cc3)C2)c1F (stereo partly drawn) [Example 1.11]
35 | 0.346 | CNC(=O)C(C)c1ccc(O[C@@H]2CCN(c3ccc(OCC4CC4(F)F)cn3)C2)cc1 (stereo partly drawn) [Example 1.28]
36 | 0.179 | CC(C(=O)NC1CC1)c1ccc(O[C@@H]2CCN(c3ccc(OCC4CC4(F)F)cn3)C2)cc1 (stereo partly drawn) [Example 1.8]
